Experimental data from ChEMBL document CHEMBL1201862, “PubChem BioAssay data set” (2004).
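Test compounds were applied to cells in 96-well plates for 48 hours at 5 doses. GI50 marks 50% less growth.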 Activity calls are given as the source filed them. No stated cut-off is given here; in the data, active = GI50 up to about 1.1 µM and inactive = higher.

Legend:
Experiment in all cases: growth of human tumour cells (NCI), 48 h
OVCAR-4 = tested on: OVCAR-4
HCT-15 = tested on: HCT-15
UACC-257 = tested on: UACC-257
U-251 = tested on: U-251
COLO 205 = tested on: COLO 205
IGROV-1 = tested on: IGROV-1
RPMI-8226 = tested on: RPMI-8226
MDA-N = tested on: MDA-N
PC-3 = tested on: PC-3
DU-145 = tested on: DU-145
BT-549 = tested on: BT-549
OVCAR-5 = tested on: OVCAR-5
KM12 = tested on: KM12
A549 = tested on: A549
NCI-H226 = tested on: NCI-H226
SW-620 = tested on: SW-620
TK-10 = tested on: TK-10
HCC 2998 = tested on: HCC 2998
HCT-116 = tested on: HCT-116
LOX IMVI = tested on: LOX IMVI
HOP-18 = tested on: HOP-18
SNB-75 = tested on: SNB-75
SNB-78 = tested on: SNB-78
NCI/ADR-RES = tested on: NCI/ADR-RES
NCI-H23 = tested on: NCI-H23
SNB-19 = tested on: SNB-19
KM-20L2 = tested on: KM-20L2
SF-295 = tested on: SF-295
UO-31 = tested on: UO-31
HL-60 = tested on: HL-60
SK-OV-3 = tested on: SK-OV-3
XF498 = tested on: XF498
LXFL 529 = tested on: LXFL 529
SF-539 = tested on: SF-539
T47D = tested on: T47D
K562 = tested on: K562
NCI-H522 = tested on: NCI-H522
RXF 393 = tested on: RXF 393
HOP-62 = tested on: HOP-62
UACC-62 = tested on: UACC-62
DMS-114 = tested on: DMS-114
MDA-MB-435 = tested on: MDA-MB-435
SK-MEL-2 = tested on: SK-MEL-2
OVCAR-3 = tested on: OVCAR-3
DMS-273 = tested on: DMS-273
RXF 631 = tested on: RXF 631
EKVX = tested on: EKVX
M14 = tested on: M14
CCRF-CEM = tested on: CCRF-CEM
HT-29 = tested on: HT-29
SK-MEL-28 = tested on: SK-MEL-28
SK-MEL-5 = tested on: SK-MEL-5
HOP-92 = tested on: HOP-92
ACHN = tested on: ACHN
MOLT-4 = tested on: MOLT-4
OVCAR-8 = tested on: OVCAR-8
SN12C = tested on: SN12C
DLD-1 = tested on: DLD-1
Malme-3M = tested on: Malme-3M
M19-MEL = tested on: M19-MEL
MDA-MB-231 = tested on: MDA-MB-231
SF-268 = tested on: SF-268
Hs-578T = tested on: Hs-578T
786-0 = tested on: 786-0
CAKI-1 = tested on: CAKI-1
NCI-H460 = tested on: NCI-H460
A498 = tested on: A498
SR = tested on: SR

`COC(=O)/C(=N\Nc1nnc(C)n1N)C(C#N)c1ccccc1` (stereo not drawn) was tested, and the GI50 (OVCAR-4) was > 40 µM (inactive), the GI50 (HCT-15) was 56.5 µM and the GI50 (UACC-257) was 40.6 µM (inactive). For the same compound, the GI50 (U-251) was > 77.4 µM (inactive), the GI50 (COLO 205) was > 63.2 µM (inactive) and the GI50 (IGROV-1) was > 54.8 µM (inactive). For the same compound, the GI50 (RPMI-8226) was 99.5 µM (inactive), the GI50 (MDA-N) was 23.4 µM (inactive) and the GI50 (PC-3) was > 100 µM (inactive). The GI50 (DU-145) was > 100 µM (inactive), the GI50 (BT-549) was > 100 µM (inactive) and the GI50 (OVCAR-5) was > 100 µM (inactive). The GI50 (KM12) was > 100 µM (inactive), the GI50 (A549) was > 92.7 µM (inactive) and the GI50 (NCI-H226) was > 100 µM (inactive). The GI50 (SW-620) was > 86.5 µM (inactive), the GI50 (TK-10) was > 100 µM (inactive) and the GI50 (HCC 2998) was > 100 µM (inactive). For the same compound, the GI50 (HCT-116) was > 73.1 µM (inactive), the GI50 (LOX IMVI) was > 64.9 µM (inactive) and the GI50 (HOP-18) was 7.05 µM (inactive). The GI50 (SNB-75) was > 64.9 µM (inactive), the GI50 (SNB-78) was > 100 µM (inactive) and the GI50 (NCI/ADR-RES) was > 100 µM (inactive). For the same compound, the GI50 (NCI-H23) was 24.1 µM (inactive), the GI50 (SNB-19) was > 100 µM (inactive) and the GI50 (KM-20L2) was > 100 µM (inactive). For the same compound, the GI50 (SF-295) was > 100 µM (inactive), the GI50 (UO-31) was > 91.4 µM (inactive) and the GI50 (HL-60) was > 100 µM (inactive). For the same compound, the GI50 (SK-OV-3) was > 100 µM (inactive), the GI50 (XF498) was > 100 µM (inactive) and the GI50 (LXFL 529) was 64.9 µM (inactive). The GI50 (SF-539) was 64.1 µM (inactive), the GI50 (T47D) was > 100 µM (inactive) and the GI50 (K562) was > 100 µM (inactive). The GI50 (NCI-H522) was > 100 µM (inactive), the GI50 (RXF 393) was > 100 µM (inactive) and the GI50 (HOP-62) was > 100 µM (inactive). For the same compound, the GI50 (UACC-62) was > 100 µM (inactive), the GI50 (DMS-114) was 21.5 µM (inactive) and the GI50 (MDA-MB-435) was 17.3 µM (inactive). For the same compound, the GI50 (SK-MEL-2) was > 100 µM (inactive), the GI50 (OVCAR-3) was > 100 µM (inactive) and the GI50 (DMS-273) was > 100 µM (inactive). For the same compound, the GI50 (RXF 631) was 83.6 µM (inactive), the GI50 (EKVX) was > 100 µM (inactive) and the GI50 (M14) was > 74.6 µM (inactive). For the same compound, the GI50 (CCRF-CEM) was > 100 µM (inactive), the GI50 (HT-29) was > 63.1 µM (inactive) and the GI50 (SK-MEL-28) was > 100 µM (inactive). The GI50 (SK-MEL-5) was 92.3 µM (inactive), the GI50 (HOP-92) was > 100 µM (inactive) and the GI50 (ACHN) was 27.8 µM (inactive). For the same compound, the GI50 (MOLT-4) was > 100 µM (inactive), the GI50 (OVCAR-8) was > 73.3 µM (inactive) and the GI50 (SN12C) was > 48.4 µM (inactive). The GI50 (DLD-1) was 31.1 µM (inactive), the GI50 (Malme-3M) was 22.3 µM (inactive) and the GI50 (M19-MEL) was 18.5 µM (inactive). For the same compound, the GI50 (MDA-MB-231) was > 100 µM (inactive), the GI50 (SF-268) was > 100 µM (inactive) and the GI50 (Hs-578T) was > 100 µM (inactive). For the same compound, the GI50 (786-0) was > 39.9 µM (inactive), the GI50 (CAKI-1) was > 100 µM (inactive) and the GI50 (NCI-H460) was > 100 µM (inactive).
For `C/C=C/C[C@@H](C)[C@@H](O)[C@H]1C(=O)N[C@@H](CC)C(=O)N(C)CC(=O)N(C)[C@@H](CC(C)C)C(=O)N[C@@H](C(C)C)C(=O)N(C)[C@@H](CC(C)C)C(=O)N[C@@H](C)C(=O)N[C@H](C)C(=O)N(C)[C@@H](CC(C)C)C(=O)N(C)[C@@H](CC(C)C)C(=O)N(C)[C@@H](C(C)C)C(=O)N1C` [CYCLOSPORINE], the GI50 (OVCAR-4) was 4.18 µM (inactive), the GI50 (HCT-15) was 4.48 µM and the GI50 (UACC-257) was 2.05 µM (inactive). For the same compound, the GI50 (U-251) was 7.66 µM (inactive), the GI50 (COLO 205) was 1.77 µM (inactive) and the GI50 (IGROV-1) was 5.24 µM (inactive). For the same compound, the GI50 (RPMI-8226) was 2.48 µM (inactive), the GI50 (OVCAR-5) was 6.93 µM (inactive) and the GI50 (KM12) was 5.94 µM (inactive). The GI50 (A549) was 5.25 µM (inactive), the GI50 (NCI-H226) was 4.39 µM (inactive) and the GI50 (SW-620) was 11.2 µM (inactive). The GI50 (TK-10) was 7.82 µM (inactive), the GI50 (HCC 2998) was 2.15 µM (inactive) and the GI50 (LOX IMVI) was 2.43 µM (inactive). The GI50 (HOP-18) was 11.1 µM (inactive), the GI50 (SNB-75) was 7.21 µM (inactive) and the GI50 (SNB-78) was 4.98 µM (inactive). For the same compound, the GI50 (NCI-H23) was 5.37 µM (inactive), the GI50 (SNB-19) was 10.5 µM (inactive) and the GI50 (KM-20L2) was 2.97 µM (inactive). The GI50 (SF-295) was 2.79 µM (inactive), the GI50 (UO-31) was 3.26 µM (inactive) and the GI50 (HL-60) was 2.25 µM (inactive). For the same compound, the GI50 (XF498) was 3.96 µM (inactive), the GI50 (LXFL 529) was 6.89 µM (inactive) and the GI50 (SF-539) was 4.3 µM (inactive). The GI50 (A498) was 4.95 µM (inactive), the GI50 (K562) was 3.99 µM (inactive) and the GI50 (NCI-H522) was 5.48 µM (inactive). The GI50 (RXF 393) was 7.45 µM (inactive), the GI50 (HOP-62) was 3.91 µM (inactive) and the GI50 (UACC-62) was 3.85 µM (inactive). The GI50 (DMS-114) was 3.7 µM (inactive), the GI50 (SK-MEL-2) was 3.17 µM (inactive) and the GI50 (OVCAR-3) was 3.8 µM (inactive). For the same compound, the GI50 (DMS-273) was 4.7 µM (inactive), the GI50 (RXF 631) was 1.98 µM (inactive) and the GI50 (EKVX) was 10.4 µM (inactive). The GI50 (M14) was 2.61 µM (inactive), the GI50 (CCRF-CEM) was 3.08 µM (inactive) and the GI50 (HT-29) was 2.29 µM (inactive). The GI50 (SK-MEL-28) was 5.68 µM (inactive), the GI50 (SK-MEL-5) was 3.78 µM (inactive) and the GI50 (HOP-92) was 4.65 µM (inactive). For the same compound, the GI50 (ACHN) was 5.5 µM (inactive), the GI50 (MOLT-4) was 2.98 µM (inactive) and the GI50 (OVCAR-8) was 12.2 µM (inactive). For the same compound, the GI50 (SN12C) was 3.95 µM (inactive), the GI50 (DLD-1) was 5.32 µM (inactive) and the GI50 (Malme-3M) was 7.45 µM (inactive). For the same compound, the GI50 (M19-MEL) was 2.37 µM (inactive), the GI50 (SR) was 1.47 µM (inactive) and the GI50 (SF-268) was 7.26 µM (inactive). For the same compound, the GI50 (786-0) was 12.8 µM (inactive), the GI50 (CAKI-1) was 6.98 µM (inactive) and the GI50 (NCI-H460) was 3.87 µM (inactive).
